Test results from ChEMBL document CHEMBL5338754, “Identification of Binding Sites in the Nucleotide-Binding Domain of P-Glycoprotein for a Potent and Nontoxic Modulator, the Amine-Containing Monomeric Flavonoid FM04” (J Med Chem, 2023).

Tests used:
[1] = target: T1, ATP-dependent translocase ABCB1 (Homo sapiens, UniProt P08183, Q1193K); test: Negative allosteric modulator activity at human P-gp Q1193K mutant expressed in HEK293FT cells assessed as reversal of P-gp mediated PTX resistance by measuring sensitivity fold change incubated for 5 days by MTS assay; type: cell-based; settings: 120 h, time 5 day
T1 sequence (P08183 whole entry Q1193K): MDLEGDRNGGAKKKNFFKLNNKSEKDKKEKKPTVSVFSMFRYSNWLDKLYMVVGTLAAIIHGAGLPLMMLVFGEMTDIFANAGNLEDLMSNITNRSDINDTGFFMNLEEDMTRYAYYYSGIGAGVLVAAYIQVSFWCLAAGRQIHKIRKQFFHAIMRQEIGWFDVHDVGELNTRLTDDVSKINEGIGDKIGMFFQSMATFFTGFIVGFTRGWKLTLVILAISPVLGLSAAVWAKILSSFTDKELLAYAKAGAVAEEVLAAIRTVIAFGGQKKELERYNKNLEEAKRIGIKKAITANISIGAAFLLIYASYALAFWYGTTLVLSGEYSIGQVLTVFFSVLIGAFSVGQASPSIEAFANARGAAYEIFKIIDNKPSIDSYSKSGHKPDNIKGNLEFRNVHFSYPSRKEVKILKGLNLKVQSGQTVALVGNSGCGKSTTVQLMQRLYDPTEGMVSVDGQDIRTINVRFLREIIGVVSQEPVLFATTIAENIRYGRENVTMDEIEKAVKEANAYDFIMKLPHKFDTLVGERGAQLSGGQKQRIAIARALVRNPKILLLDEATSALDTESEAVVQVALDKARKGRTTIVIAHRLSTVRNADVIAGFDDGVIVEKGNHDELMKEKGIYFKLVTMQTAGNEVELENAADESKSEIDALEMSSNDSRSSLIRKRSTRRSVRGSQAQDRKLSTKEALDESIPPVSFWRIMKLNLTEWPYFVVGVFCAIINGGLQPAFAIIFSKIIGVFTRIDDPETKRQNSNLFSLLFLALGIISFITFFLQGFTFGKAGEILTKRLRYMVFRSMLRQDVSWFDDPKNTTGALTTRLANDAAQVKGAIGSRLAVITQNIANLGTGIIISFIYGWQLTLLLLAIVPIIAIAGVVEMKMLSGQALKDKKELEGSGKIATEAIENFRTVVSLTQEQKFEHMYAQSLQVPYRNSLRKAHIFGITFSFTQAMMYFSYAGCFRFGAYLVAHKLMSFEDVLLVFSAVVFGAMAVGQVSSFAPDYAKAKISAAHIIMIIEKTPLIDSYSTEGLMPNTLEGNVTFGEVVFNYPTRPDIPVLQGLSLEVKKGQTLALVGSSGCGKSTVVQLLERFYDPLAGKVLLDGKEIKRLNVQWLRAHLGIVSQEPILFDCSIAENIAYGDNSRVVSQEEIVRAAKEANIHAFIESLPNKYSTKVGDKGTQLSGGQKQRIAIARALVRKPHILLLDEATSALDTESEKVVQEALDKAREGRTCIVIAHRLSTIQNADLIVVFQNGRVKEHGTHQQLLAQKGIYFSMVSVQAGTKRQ

[2] = target: T2, ATP-dependent translocase ABCB1 (Homo sapiens, UniProt P08183, G1114V); test: Negative allosteric modulator activity at human P-gp G1114V mutant expressed in HEK293FT cells assessed as fold change in intracellular doxorubicin accumulation using doxorubicin as substrate at 1 uM incubated for 150 mins by microplate reader assay relative to DMSO; type: cell-based; settings: 2.5 h
T2 sequence (P08183 whole entry G1114V): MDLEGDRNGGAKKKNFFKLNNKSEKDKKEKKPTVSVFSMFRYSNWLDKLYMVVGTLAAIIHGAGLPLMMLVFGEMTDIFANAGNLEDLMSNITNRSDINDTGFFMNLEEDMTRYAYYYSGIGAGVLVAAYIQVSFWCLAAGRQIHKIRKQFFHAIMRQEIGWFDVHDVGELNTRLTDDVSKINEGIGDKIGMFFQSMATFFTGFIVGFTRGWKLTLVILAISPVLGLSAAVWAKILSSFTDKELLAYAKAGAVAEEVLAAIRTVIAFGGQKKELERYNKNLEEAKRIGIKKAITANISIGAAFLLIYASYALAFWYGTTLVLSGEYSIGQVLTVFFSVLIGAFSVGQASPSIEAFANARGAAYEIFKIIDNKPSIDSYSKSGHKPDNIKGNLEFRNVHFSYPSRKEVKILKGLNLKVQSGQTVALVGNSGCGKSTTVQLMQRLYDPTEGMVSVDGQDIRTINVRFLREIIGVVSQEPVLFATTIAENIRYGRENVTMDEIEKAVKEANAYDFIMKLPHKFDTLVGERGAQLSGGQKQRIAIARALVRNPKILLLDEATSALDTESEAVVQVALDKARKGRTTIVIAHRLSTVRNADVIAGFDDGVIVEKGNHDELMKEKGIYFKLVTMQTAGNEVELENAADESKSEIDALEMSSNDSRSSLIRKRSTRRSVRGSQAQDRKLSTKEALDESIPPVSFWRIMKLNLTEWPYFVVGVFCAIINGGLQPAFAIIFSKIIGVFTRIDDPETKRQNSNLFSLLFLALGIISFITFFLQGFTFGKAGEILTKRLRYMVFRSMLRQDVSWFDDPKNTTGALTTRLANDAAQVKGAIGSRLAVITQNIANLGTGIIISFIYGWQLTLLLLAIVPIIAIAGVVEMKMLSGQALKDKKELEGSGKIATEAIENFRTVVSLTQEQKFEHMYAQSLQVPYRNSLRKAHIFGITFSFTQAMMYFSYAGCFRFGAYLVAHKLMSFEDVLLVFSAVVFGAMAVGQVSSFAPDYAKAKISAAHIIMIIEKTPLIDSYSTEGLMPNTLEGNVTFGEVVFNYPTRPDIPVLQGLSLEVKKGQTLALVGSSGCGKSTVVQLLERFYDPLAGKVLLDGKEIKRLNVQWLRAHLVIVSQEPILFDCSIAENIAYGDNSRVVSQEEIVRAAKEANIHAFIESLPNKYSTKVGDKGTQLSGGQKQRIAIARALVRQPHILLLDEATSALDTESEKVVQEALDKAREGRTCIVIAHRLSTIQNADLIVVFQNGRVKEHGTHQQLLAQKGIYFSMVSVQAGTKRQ

[3] = target: T3, ATP-dependent translocase ABCB1 (Homo sapiens, UniProt P08183); test: Binding affinity to human P-glycoprotein expressed in LCC6MDR cells assessed as stabilization of protein by measuring fluorescence at 100 uM incubated for 1 hr by Western blotting analysis; type: cell-based
T3 sequence (P08183 whole entry): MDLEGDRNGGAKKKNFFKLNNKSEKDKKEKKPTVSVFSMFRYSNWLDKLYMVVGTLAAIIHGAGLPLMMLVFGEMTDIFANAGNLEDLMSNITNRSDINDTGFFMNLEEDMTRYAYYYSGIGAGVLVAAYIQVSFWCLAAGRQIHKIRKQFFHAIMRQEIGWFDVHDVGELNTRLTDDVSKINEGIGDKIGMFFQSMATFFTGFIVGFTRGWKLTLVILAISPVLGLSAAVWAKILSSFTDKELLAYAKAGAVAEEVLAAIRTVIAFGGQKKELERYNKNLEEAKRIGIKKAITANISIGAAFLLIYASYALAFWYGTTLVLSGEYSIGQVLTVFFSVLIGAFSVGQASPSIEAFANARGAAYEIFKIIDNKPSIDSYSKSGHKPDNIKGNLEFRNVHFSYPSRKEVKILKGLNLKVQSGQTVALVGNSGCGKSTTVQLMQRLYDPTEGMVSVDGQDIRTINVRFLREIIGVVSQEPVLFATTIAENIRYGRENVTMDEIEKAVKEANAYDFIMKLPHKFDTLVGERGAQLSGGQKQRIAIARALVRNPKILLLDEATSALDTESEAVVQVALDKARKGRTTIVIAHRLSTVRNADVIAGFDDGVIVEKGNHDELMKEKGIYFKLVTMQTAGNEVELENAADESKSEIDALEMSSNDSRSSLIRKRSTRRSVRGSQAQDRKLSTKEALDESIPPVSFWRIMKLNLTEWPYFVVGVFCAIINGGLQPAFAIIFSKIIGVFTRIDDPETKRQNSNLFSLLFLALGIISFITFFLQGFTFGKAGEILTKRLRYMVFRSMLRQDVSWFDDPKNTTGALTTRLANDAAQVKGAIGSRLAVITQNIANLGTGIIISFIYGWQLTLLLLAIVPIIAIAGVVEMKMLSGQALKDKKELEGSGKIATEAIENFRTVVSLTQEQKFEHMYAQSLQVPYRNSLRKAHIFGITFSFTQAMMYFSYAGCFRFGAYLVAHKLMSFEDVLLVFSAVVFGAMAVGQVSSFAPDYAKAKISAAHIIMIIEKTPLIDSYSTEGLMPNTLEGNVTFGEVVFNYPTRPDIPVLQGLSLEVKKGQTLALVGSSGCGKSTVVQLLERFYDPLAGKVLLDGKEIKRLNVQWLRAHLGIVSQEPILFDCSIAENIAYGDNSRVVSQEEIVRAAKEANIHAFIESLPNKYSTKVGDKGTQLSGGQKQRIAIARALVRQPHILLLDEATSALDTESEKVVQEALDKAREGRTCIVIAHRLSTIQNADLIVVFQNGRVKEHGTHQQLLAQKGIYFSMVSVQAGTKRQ

[4] = target: T2, ATP-dependent translocase ABCB1; test: Negative allosteric modulator activity at human P-gp G1114V mutant expressed in HEK293FT cells assessed as increase in intracellular doxorubicin accumulation using doxorubicin as substrate at 1 uM incubated for 150 mins by microplate reader assay (reference value: 102 +/- 2.6 %); type: cell-based; settings: 2.5 h
[5] = target: T4, ATP-dependent translocase ABCB1 (Homo sapiens, UniProt P08183, Q1193A); test: Activation of P-gp ATPase activity in human P-gp Q1193A mutant expressed in HEK293FT cell microsomes at 20 uM incubated for 1 hr in presence of ATP by Glo-luminescence based microplate reader assay (reference value: 0.38 +/- 0.04 pmol/min/microg); parameters: species or system Microsome
T4 sequence (P08183 whole entry Q1193A): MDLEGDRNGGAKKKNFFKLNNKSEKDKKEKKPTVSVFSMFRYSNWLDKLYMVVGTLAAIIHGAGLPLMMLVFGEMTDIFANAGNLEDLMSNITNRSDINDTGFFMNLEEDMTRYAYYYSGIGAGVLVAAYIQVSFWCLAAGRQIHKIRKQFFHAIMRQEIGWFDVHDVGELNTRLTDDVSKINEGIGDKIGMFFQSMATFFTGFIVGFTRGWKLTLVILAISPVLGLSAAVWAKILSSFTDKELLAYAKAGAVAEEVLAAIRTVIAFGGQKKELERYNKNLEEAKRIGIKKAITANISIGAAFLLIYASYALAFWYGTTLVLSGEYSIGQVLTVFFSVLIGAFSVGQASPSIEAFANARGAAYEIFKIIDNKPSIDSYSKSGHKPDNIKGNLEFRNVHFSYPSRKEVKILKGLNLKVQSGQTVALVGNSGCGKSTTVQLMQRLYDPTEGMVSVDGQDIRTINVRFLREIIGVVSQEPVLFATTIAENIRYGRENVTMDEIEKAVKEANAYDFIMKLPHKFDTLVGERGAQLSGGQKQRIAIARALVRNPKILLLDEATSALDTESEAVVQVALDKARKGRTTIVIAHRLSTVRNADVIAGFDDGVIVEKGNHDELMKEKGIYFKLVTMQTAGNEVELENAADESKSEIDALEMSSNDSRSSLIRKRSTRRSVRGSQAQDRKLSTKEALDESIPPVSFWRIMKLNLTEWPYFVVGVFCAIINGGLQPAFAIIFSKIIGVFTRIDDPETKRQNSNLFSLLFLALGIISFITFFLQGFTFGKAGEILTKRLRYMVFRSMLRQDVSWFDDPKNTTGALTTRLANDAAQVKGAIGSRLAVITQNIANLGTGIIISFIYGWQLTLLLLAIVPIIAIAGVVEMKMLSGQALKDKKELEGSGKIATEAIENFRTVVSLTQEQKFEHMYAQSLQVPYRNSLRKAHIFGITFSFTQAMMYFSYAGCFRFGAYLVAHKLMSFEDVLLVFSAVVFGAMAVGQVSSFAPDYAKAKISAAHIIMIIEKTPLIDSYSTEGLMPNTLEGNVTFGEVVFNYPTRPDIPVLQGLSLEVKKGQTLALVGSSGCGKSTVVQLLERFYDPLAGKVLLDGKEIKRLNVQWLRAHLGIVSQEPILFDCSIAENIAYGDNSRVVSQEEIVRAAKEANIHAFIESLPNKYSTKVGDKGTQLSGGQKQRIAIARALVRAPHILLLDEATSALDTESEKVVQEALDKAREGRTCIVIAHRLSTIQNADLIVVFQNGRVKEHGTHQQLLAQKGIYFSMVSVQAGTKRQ

[6] = target: P-gp (ABCB1) Q1193N mutant (Homo sapiens, UniProt P08183, Q1193N); test: Activation of P-gp ATPase activity in human P-gp Q1193N mutant expressed in HEK293FT cell microsomes assessed as fold change of ATPase activity at 20 uM incubated for 1 hr in presence of ATP by Glo-luminescence based microplate reader assay relative to DMSO; parameters: species or system Microsome; settings: read-out: FC
[7] = target: ATP-dependent translocase ABCB1 (Homo sapiens, UniProt P08183, T1226F); test: Negative allosteric modulator activity at human P-gp T1226F mutant expressed in HEK293FT cells assessed as fold change in intracellular doxorubicin accumulation using doxorubicin as substrate at 1 uM incubated for 150 mins by microplate reader assay relative to DMSO; type: cell-based; settings: 2.5 h
[8] = target: T5, ATP-dependent translocase ABCB1 (Homo sapiens, UniProt P08183, I1115L); test: Negative allosteric modulator activity at human P-gp I1115L mutant expressed in HEK293FT cells assessed as increase in intracellular doxorubicin accumulation using doxorubicin as substrate at 1 uM incubated for 150 mins by microplate reader assay (reference value: 58.9 +/- 2.2 %); type: cell-based; settings: 2.5 h
[9] = target: ATP-dependent translocase ABCB1 (Homo sapiens, UniProt P08183, T1226Y); test: Negative allosteric modulator activity at human P-gp T1226Y mutant expressed in HEK293FT cells assessed as reversal of P-gp mediated PTX resistance by measuring sensitivity fold change incubated for 5 days by MTS assay; type: cell-based; settings: 120 h, time 5 day
[10] = target: T3, ATP-dependent translocase ABCB1; test: Negative allosteric modulator activity at human wildtype P-gp expressed in HEK293FT cells assessed as fold change in intracellular doxorubicin accumulation using doxorubicin as substrate at 1 uM incubated for 150 mins by microplate reader assay relative to DMSO; type: cell-based; settings: 2.5 h
[11] = target: ATP-dependent translocase ABCB1 (Homo sapiens, UniProt P08183, Q1193E); test: Negative allosteric modulator activity at human P-gp Q1193E mutant expressed in HEK293FT cells assessed as reversal of P-gp mediated PTX resistance by measuring sensitivity fold change incubated for 5 days by MTS assay; type: cell-based; settings: 120 h, time 5 day
[12] = target: ATP-dependent translocase ABCB1 (Homo sapiens, UniProt P08183, Q1193N); test: Activation of P-gp ATPase activity in human P-gp Q1193N mutant expressed in HEK293FT cell microsomes at 20 uM incubated for 1 hr in presence of ATP by Glo-luminescence based microplate reader assay (reference value: 0.34 +/- 0.05 pmol/min/microg); parameters: species or system Microsome
[13] = target: ATP-dependent translocase ABCB1 (Homo sapiens, UniProt P08183, I1115N); test: Negative allosteric modulator activity at human P-gp I1115N mutant expressed in HEK293FT cells assessed as fold change in intracellular doxorubicin accumulation using doxorubicin as substrate at 1 uM incubated for 150 mins by microplate reader assay relative to DMSO; type: cell-based; settings: 2.5 h
[14] = target: ATP-dependent translocase ABCB1 (Homo sapiens, UniProt P08183, Q1193C); test: Negative allosteric modulator activity at human P-gp Q1193C mutant expressed in HEK293FT cells assessed as reversal of P-gp mediated PTX resistance by measuring sensitivity fold change incubated for 5 days by MTS assay; type: cell-based; settings: 120 h, time 5 day
[15] = target: ATP-dependent translocase ABCB1 (Homo sapiens, UniProt P08183, Q1193T); test: Negative allosteric modulator activity at human P-gp Q1193T mutant expressed in HEK293FT cells assessed as fold change in intracellular doxorubicin accumulation using doxorubicin as substrate at 1 uM incubated for 150 mins by microplate reader assay relative to DMSO; type: cell-based; settings: 2.5 h
[16] = target: T5, ATP-dependent translocase ABCB1; test: Negative allosteric modulator activity at human P-gp I1115L mutant expressed in HEK293FT cells assessed as reversal of P-gp mediated PTX resistance by measuring sensitivity fold change incubated for 5 days by MTS assay; type: cell-based; settings: 120 h, time 5 day
[17] = target: ATP-dependent translocase ABCB1 (Homo sapiens, UniProt P08183, I1115M); test: Negative allosteric modulator activity at human P-gp I1115M mutant expressed in HEK293FT cells assessed as increase in intracellular doxorubicin accumulation using doxorubicin as substrate at 1 uM incubated for 150 mins by microplate reader assay (reference value: 97 +/- 3.1 %); type: cell-based; settings: 2.5 h
[18] = target: T1, ATP-dependent translocase ABCB1; test: Negative allosteric modulator activity at human P-gp Q1193K mutant expressed in HEK293FT cells assessed as fold change in intracellular doxorubicin accumulation using doxorubicin as substrate at 1 uM incubated for 150 mins by microplate reader assay relative to DMSO; type: cell-based; settings: 2.5 h
[19] = target: ATP-dependent translocase ABCB1 (Homo sapiens, UniProt P08183, I1115W); test: Negative allosteric modulator activity at human P-gp I1115W mutant expressed in HEK293FT cells assessed as fold change in intracellular doxorubicin accumulation using doxorubicin as substrate at 1 uM incubated for 150 mins by microplate reader assay relative to DMSO; type: cell-based; settings: 2.5 h
[20] = target: T4, ATP-dependent translocase ABCB1; test: Negative allosteric modulator activity at human P-gp Q1193A mutant expressed in HEK293FT cells assessed as fold change in intracellular doxorubicin accumulation using doxorubicin as substrate at 1 uM incubated for 150 mins by microplate reader assay relative to DMSO; type: cell-based; settings: 2.5 h
[21] = target: ATP-dependent translocase ABCB1 (Mus musculus, UniProt P06795); test: Binding affinity to mouse P-glycoprotein expressed in Pichia pastoris assessed as stabilization of protein by measuring fluorescence at 100 uM incubated for 1 hr by Western blotting analysis

Q: How did the “fold change (FC)” value [1] turn out when `O=c1cc(-c2ccc(OCCOCCNCc3ccccc3)cc2)oc2ccccc12` was run?
A: 9.4

Q: And the “fold change (FC)” value [2]?
A: 1

Q: And the Activity [3]?
A: Active

Q: What about the Activity [4] of the same molecule?
A: 102.5%

Q: And the Activity [5]?
A: 0.42 pmol/min/µg

Q: And the fold induction at 1 h, 20 µM [6]?
A: 1.7

Q: What about the “fold change (FC)” value [7] of the same molecule?
A: 1.5

Q: What about the Activity [8] of the same molecule?
A: 97.2%

Q: What about the “fold change (FC)” value [9] of the same molecule?
A: 62.4

Q: What about the “fold change (FC)” value [10] of the same molecule?
A: 1.9

Q: And the “fold change (FC)” value [11]?
A: 4.3

Q: What about the Activity [12] of the same molecule?
A: 0.58 pmol/min/µg

Q: And the “fold change (FC)” value [13]?
A: 1

Q: What about the “fold change (FC)” value [14] of the same molecule?
A: 12.4

Q: What about the “fold change (FC)” value [15] of the same molecule?
A: 1.3

Q: And the “fold change (FC)” value [16]?
A: 45.8

Q: And the Activity [17]?
A: 93.3%

Q: And the “fold change (FC)” value [18]?
A: 1.3

Q: What about the “fold change (FC)” value [19] of the same molecule?
A: 1

Q: What about the “fold change (FC)” value [20] of the same molecule?
A: 1.1

Q: What about the Activity [21] of the same molecule?
A: Not Active
